Laboratory results taken from patent publication US12110283B2, “Carbonic anhydrase targeting agents and methods of using same” (VisEn Medical, Inc., priority 2011, dated 2024).

Experiments:
[1] = test system: HeLa tumors; experiment: Imaging of tumors in vivo using CA agents (planar reflectance and FMT); settings: NU/NU mice, bilateral HeLa tumors, 2 nmoles i.v., 24 hrs post-injection
Method: In this experiment, NU/NU mice 6-8 weeks old (Charles River Laboratory, Wilmington, MA) were injected subcutaneously (s.c.) with about 2×10^6 HeLa cells bilaterally in each mammary fat pad. When tumors reached an approximate size of 3×3 mm, mice were injected intravenously (i.v.) with 2 nmoles of carbonic anhydrase agent C5 or nonbinding control agent D3 (5 mice/probe+2 mice/no probe as control) in 100 μL volume via tail vein. Imaging was conducted at 24 hrs post-injection using a Fluorescence Molecular Tomography system (VisEn Medical, Bedford, MA) that is commercially available.

[2] = Biodistribution of i.v. administered compound in HeLa tumor bearing mice; type: in vivo; settings: 2 nmoles i.v., 24 hr, excised tissues, reflectance mode
Method: Female NU/NU mice 6-8 weeks old (Charles River Laboratory, Wilmington, MA) were injected subcutaneously (s.c.) with HeLa cells (5×10^6) in the first mammary fat pads. Once tumors reached the desired volume (measured with calipers using the formula volume mm^3=(length×width^2)/2), mice were injected i.v. with compound C5 (2 nmoles) or nonbinding control D3. Mice were sacrificed by carbon dioxide asphyxiation 24 hr later and certain tissues removed, rinsed with saline, blotted dry, and the imaged on a VisEn FMT 2500 using the reflectance mode. Regions of interest (ROIs) were drawn around each organ using the FMT Software and the mean fluorescence (reported as counts/energy) determined for each organ and normalized to the mean fluorescence in tumors taken to be 100%.

[3] = test system: HeLa tumors; experiment: Detection of in vivo induction of hypoxia in mice with HeLa tumors (FRI of excised tumors); settings: 2 nmol i.v., tumors excised and imaged by FRI 24 hours after injection
Method: Female nu/nu mice at 4-5 weeks old, obtained from (Harlan Laboratory, Indianapolis, IN) were injected subcutaneously (s.c.) with HeLa cells (1.5×10^6 cells/site) in the mammary fat pads. Once tumors reached the desired volume of 600-700 mm^3 (measured with calipers using the formula volume mm^3=length×width^2/2), mice were grouped randomly (n=4-5 mice/group) for with some exposed to controlled hypoxic environmental conditions (8% oxygen) in a chamber with monitored oxygen levels. Control mice with matched tumor volumes were maintained under normal housing conditions. C5, (2 nmol) was injected intravenously to all mice at 24 hours after the initiation of the experiment. Hypoxic mice were placed back into the hypoxic chamber after the injection, and tumors were excised and imaged by fluorescence reflectance imaging (FRI) 24 hours following injection. FIGS. 6A-B show fluorescence images of the excised tumors from mice that were placed in normal air (left) and 8% 02 (right).

[4] = test system: HeLa tumors; experiment: Effect of acetazolamide treatment on carbonic anhydrase signal in HeLa tumor-bearing mice (FMT); type: in vivo; settings: for accumulation in tumors as quantified by FMT (FIG. 5B): 24 hours
Method: HeLa tumor-bearing mice were randomized once their tumors reached the desired volume and injected i.v. with either C5 (2 nmoles). For competition studies, mice were injected with the acetazolamide (10 mg/kg) followed 60 minutes later by compound C5 (2 nmoles). Imaging was performed 24 hours after administration of the agents using the FMT 2500.

CC1(C)C(/C=C/C(=C/C=C2/N(CCCS(=O)(=O)O)c3ccc4c(S(=O)(=O)O)cc(S(=O)(=O)O)cc4c3C2(C)C)c2ccc(C(=O)NCCC(=O)Nc3nnc(S(N)(=O)=O)s3)cn2)=[N+](CCCS(=O)(=O)[O-])c2ccc3c(S(=O)(=O)O)cc(S(=O)(=O)O)cc3c21 [Compound C5, 3-(2-((1E,3Z,5E)-5-(1,1-dimethyl-6,8-disulfo-3-(3-sulfopropyl)-1H-benzo[e]indol-2(3H)-ylidene)-3-(5-((3-oxo-3-((5-sulfamoyl-1,3,4-thiadiazol-2-yl)amino)propyl)carbamoyl)pyridin-2-yl)penta-1,3-dien-1-yl)-1,1-dimethyl-6,8-disulfo-1H-benzo[e]indol-3-ium-3-yl)propane-1-sulfonate]
tumor signal by planar reflectance and tomographic imaging [1]: tumors can be imaged effectively | tissue fluorescence (biodistribution), normalized to tumors (FIG. 4) [2]: very low in most tissues with the high concentrations found in tumors, and lower concentrations accumulated in the kidneys | uptake in excised tumors, hypoxic atmosphere (8% oxygen) versus normal air (FIGS. 6A-B) [3]: significantly greater uptake | accumulation in tumors as quantified by FMT (FIG. 5B) ([4]; 2 nmoles i.v., no acetazolamide): 116 pmol | accumulation in tumors as quantified by FMT (FIG. 5B) ([4]; acetazolamide 10 mg/kg 60 minutes before agent (2 nmoles i.v.)): 39 pmol | tumor signal in tomographic images after acetazolamide compared to untreated animals (FIG. 5A) ([4]; acetazolamide 10 mg/kg 60 minutes before agent (2 nmoles i.v.), imaging at 24 hours): reduced signal | less tumor signal in acetazolamide treated animals ([4]; acetazolamide 10 mg/kg 60 minutes before agent, versus untreated): approximately 66%
